A short description of the test: Assay Measuring Activity of Test Compounds on Viral Production from HepAD38 Cells: HepAD38 cells grown in a T-150 flask (Corning, cat #: 430825) with Growth Medium (DMEM/F12 (1:1) (Hyclone, cat #: SH30023.02), 1× Pen/Strep (Invitrogen, cat #: 15140-122), 10% FBS (Tissue Culture Biologics, cat #: 101), 250 μg/mL G418 (Alfa Aesar, cat #: J62671), 1 μg/mL Tetracycline (Teknova, cat #: T3320)) were detached with 0.25% trypsin-EDTA to (Invitrogen, cat #: 25200-056). Tetracycline-free treatment medium (15 mL DMEM/F12 (1:1) 1× Pen/step, with 2% FBS, Tet-system approved (Clontech, cat #: 631106) were then added to mix, transferred into a 50 ml conical tube (Falcon, cat #: 21008-918,) and spun at 1300 rpm for 5 min. Pelleted cells were then re-suspended/washed with 50 mL of 1×DPBS (Invitrogen, cat #: 14190-136) 2 times and 50 mL treatment medium twice. HepAD38 cells were then re-suspended with 10 mL of treatment medium, syringed and counted. Wells of 96-well clear bottom TC plate (Corning, cat #: 3904,) were seeded at 50,000 cells/well in 180 μL of treatment medium, and 20 μL of either 10% DMSO (Sigma, cat #: D4540) as controls or a 10× solution of test compounds in 10% DMSO in treatment media was added for a final compound concentration starting at 10 μM, and plates were incubated in 5% CO2 incubator at 37° C. for 5 days.Subsequently viral load production was assayed by quantitative PCR (qPCR) of the HBV core sequence. PCR reaction mixture containing forward primers HBV-f 5′-CTGTGCCTTGGGTGGCTTT-3′ (IDT DNA), Reverse primers HBV-r 5′-[…]-3′ (IDT DNA), Fluorescent TaqMan™ Probes HBV-probe 5′-FAM/AGCTCCAAA/ZEN/[…]/3IABkFQ-3′ (IDT DNA), 10 μL/well of PerfeCTa® qPCR ToughMix® (Quanta Biosciences, Cat #: 95114-05K), and 6 μL/well of DEPC water (Alfa Aesar, cat #: J62087) was prepared. […] of supernatant was added to 16 μL of the reaction mixture in a qPCR plate (Applied Biosytems, Cat #: 4309849), sealed with a film (Applied Biosystems, Cat #: 4311971), centrifuged for a few seconds, and subsequently run on an Applied Biosystems VIIA7. The PCR mixture was incubated at 45° C. for 5 min, then 95° C. for 10 min, followed by 40 cycles of 10 seconds at 95° C. and 20 seconds at 60° C. Viral load was quantified against known HBV DNA standards by using ViiA™ 7 Software. Viral load in the supernatant from wells with treated cells were compared against viral load in supernatant from DMSO control wells (>3 per plate). Cell viability assay was performed with CellTiter-Glo Luminescent Cell Viability Assay (Promega, cat #: G7573) with modification. Mixed appropriate amount of CellTiter-Glo (CTG) 1×DPBS in a 1:1 ratio, added 100 uL of the mixture to each well followed completely removal of all supernatant in each well without touching cell surface. Incubated the plate at room temperature for 10 min on an orbital shaker, and then read the plate with a plate reader (TECAN M1000 or Envision). For orientation: Quantitative PCR measures a nucleic acid by following its amplification.

Where “and” joins values, the source holds several entries; their conditions need not be identical. Equal values may be shown once.

As for `CNC(=O)C1CC2CC(c3nn(C)c(N)c3C(=O)Nc3ccc(F)c(Cl)c3)CC2C1` (centres undefined), the EC50 (as a rule, the concentration at which the effect is half-maximal) (HePAD38) was less than 100 nM. Turning to `COc1cccc(C2CCC(c3nn(C)c(N)c3C(=O)Nc3ccc(F)c(Cl)c3)C2)c1` (centres undefined), the EC50 (HePAD38) was less than 100 nM. Same read-out and setting: for `Cn1nc([C@@H]2CC3CC(=NO)C[C@@H]3C2)c(C(=O)Nc2ccc(F)c(Cl)c2)c1N` (some centres undefined) the value was less than 100 nM.

As for `Cn1nc([C@H]2CC3COC(=O)C[C@H]3C2)c(C(=O)Nc2ccc(F)c(Cl)c2)c1N` (some centres undefined), under “HePAD38”, the EC50 is less than 100 nM. Still for that read-out and setting: then `Cn1nc(C2CC3CC(O)(C(=O)NC4CC4)CC3C2)c(C(=O)Nc2ccc(F)c(Cl)c2)c1N` (centres undefined), with “in the range around 300 nM”. The same measure, in the same setting: then `Nc1[nH]nc(C2CC3CC(=O)CC3C2)c1C(=O)Nc1ccc(F)c(Cl)c1` (centres undefined), with “in the range around 300 nM”. Still for that read-out and setting: for `Cn1nc([C@@H]2CC3COC(=O)C[C@@H]3C2)c(C(=O)Nc2ccc(F)c(Cl)c2)c1N` (some centres undefined) the value was “in the range around 300 nM”. With `Cn1nc([C@@H]2CC3COC(=O)C[C@H]3C2)c(C(=O)Nc2ccc(F)c(Cl)c2)c1N` (some centres undefined), under “HePAD38”, the EC50 result is “in the range around 300 nM”. Still for that read-out and setting: then `COc1cccc([C@@H]2CC[C@H](c3nn(C)c(N)c3C(=O)Nc3ccc(F)c(Cl)c3)C2)c1`, with less than 100 nM; and `Cn1nc(C2CC3CC(C#N)CC3C2)c(C(=O)Nc2ccc(F)c(Cl)c2)c1N` (centres undefined), with less than 100 nM; and `Cn1nc([C@H]2C[C@H](c3ccccc3)C2)c(C(=O)Nc2ccc(F)c(Cl)c2)c1N`, with “in the range around 300 nM”. On the same count and under the same terms, then `CC(=O)NC1CC2CC(c3nn(C)c(N)c3C(=O)Nc3ccc(F)c(Cl)c3)CC2C1` (centres undefined), with less than 100 nM; and `Cn1nc(C2CC3CC(OC(C)(C)C)CC3C2)c(C(=O)Nc2ccc(F)c(Cl)c2)c1N` (centres undefined), with less than 100 nM; and `Cn1nc(C2CC3CC(CCO)CC3C2)c(C(=O)Nc2ccc(F)c(Cl)c2)c1N` (centres undefined), with less than 100 nM. Turning to `COc1ccc([C@@H]2CC[C@H](c3nn(C)c(N)c3C(=O)Nc3ccc(F)c(Cl)c3)C2)cc1`, the EC50 is < 100 nM and in the range around 300 nM. In the case of `Cn1nc(C2CC3CC(N4CCCS4(=O)=O)CC3C2)c(C(=O)Nc2ccc(F)c(Cl)c2)c1N` (centres undefined), the EC50 (HePAD38) is less than 100 nM.

On to `Cn1cc(C2CC3CC(c4nn(C)c(N)c4C(=O)Nc4ccc(F)c(Cl)c4)CC3C2)cn1` (centres undefined), for which, under “HePAD38”, the EC50 was less than 100 nM.

Take `Cn1nc(C2CCN(c3ccccc3)C2)c(C(=O)Nc2ccc(F)c(Cl)c2)c1N` (centres undefined): the EC50 result (HePAD38) is “in the range around 300 nM”. With `Cn1nc(C2CC3CC([S+](C)[O-])CC3C2)c(C(=O)Nc2ccc(F)c(Cl)c2)c1N` (centres undefined), the EC50 (HePAD38) was less than 100 nM. The same measure, in the same setting: then `Cn1nc(C2CC3CC(S(C)(=O)=O)CC3C2)c(C(=O)Nc2ccc(F)c(Cl)c2)c1N` (centres undefined), with less than 100 nM. Still for that read-out and setting: then `Cn1nc(C2CC3CC(N4CCOC4=O)CC3C2)c(C(=O)Nc2ccc(F)c(Cl)c2)c1N` (centres undefined), with less than 100 nM. With `Cn1nc(C2CC3COC(=O)CC3C2)c(C(=O)Nc2ccc(F)c(Cl)c2)c1N` (centres undefined), the EC50 was less than 100 nM. In addition, the 50% effective concentration (EC50) (HePAD38) was less than 100 nM. For `Cn1nc(C2CC3CC(O)(CS(=O)(=O)NC4CC4)CC3C2)c(C(=O)Nc2ccc(F)c(Cl)c2)c1N` (centres undefined), the EC50 result was “in the range around 300 nM and < 100 nM”. With `Cn1nc([C@@H]2CC[C@@H](c3ccccc3)C2)c(C(=O)Nc2ccc(F)c(Cl)c2)c1N`, the EC50 (HePAD38) was less than 100 nM. Regarding `Cn1nc(C2CC3CC(O)(C4CC4)CC3C2)c(C(=O)Nc2ccc(F)c(Cl)c2)c1N` (centres undefined), under “HePAD38”, the EC50 was less than 100 nM.

On to `Cn1nc([C@H]2CC3CC(=NO)C[C@@H]3C2)c(C(=O)Nc2ccc(F)c(Cl)c2)c1N` (some centres undefined), for which the EC50 (HePAD38) is less than 100 nM. On to `COC(=O)CC1(O)CC2CC(c3nn(C)c(N)c3C(=O)Nc3ccc(F)c(Cl)c3)CC2C1` (centres undefined), for which the EC50 was less than 100 nM. In addition, where the note is “HePAD38”, the EC50 was less than 100 nM. `Cn1nc([C@@H]2CC[C@H](c3ccccc3)C2)c(C(=O)Nc2ccc(F)c(Cl)c2)c1N`: the EC50 (HePAD38) is less than 100 nM. On the same count and under the same terms, for `COCCOc1ccc(C2CCC(c3nn(C)c(N)c3C(=O)Nc3ccc(F)c(Cl)c3)C2)cc1` (centres undefined) the value was less than 100 nM; for `CCOC(=O)CC1CC2CC(c3nn(C)c(N)c3C(=O)Nc3ccc(F)c(Cl)c3)CC2C1` (centres undefined), less than 100 nM.

`Cn1nc(C2CCC(c3ccc(F)cc3)C2)c(C(=O)Nc2ccc(F)c(Cl)c2)c1N` (centres undefined): the EC50 (HePAD38) was less than 100 nM. `CC(=O)Nc1ccc(C2CCC(c3nn(C)c(N)c3C(=O)Nc3ccc(F)c(Cl)c3)C2)cc1` (centres undefined): where the note is “HePAD38”, the EC50 is less than 100 nM.

As for `CN(C)C(=O)CC1(O)CC2CC(c3nn(C)c(N)c3C(=O)Nc3ccc(F)c(Cl)c3)CC2C1` (centres undefined), for the setting “HePAD38”, the EC50 was less than 100 nM.

Take `Cn1nc([C@H]2CC[C@H](c3ccccc3)C2)c(C(=O)Nc2ccc(F)c(Cl)c2)c1N`: where the note is “HePAD38”, the EC50 result was “in the range around 5250 nM”.

Turning to `Cn1nc(C2CC3CC(C(N)=O)CC3C2)c(C(=O)Nc2ccc(F)c(Cl)c2)c1N` (centres undefined), the EC50 (HePAD38) is less than 100 nM. Consider `COC1CC2CC(c3nn(C)c(N)c3C(=O)Nc3ccc(F)c(Cl)c3)CC2C1` (centres undefined), for which the EC50 (HePAD38) is less than 100 nM. Same read-out and setting: for `Cn1nc(C2CC3CC(C)(O)CC3C2)c(C(=O)Nc2ccc(F)c(Cl)c2)c1N` (centres undefined) the value was less than 100 nM; for `Cn1nc(C2CC3CC(n4cccn4)CC3C2)c(C(=O)Nc2ccc(F)c(Cl)c2)c1N` (centres undefined), less than 100 nM; for `Cn1nc(C2CC3CC(O)(CSCCN4CCOCC4)CC3C2)c(C(=O)Nc2ccc(F)c(Cl)c2)c1N` (centres undefined), less than 100 nM. Still for that read-out and setting: then `COc1cccc([C@H]2CC[C@H](c3nn(C)c(N)c3C(=O)Nc3ccc(F)c(Cl)c3)C2)c1`, with less than 100 nM; and `Cn1nc(C2CCC(c3ccccc3)C2)c(C(=O)Nc2cc(F)c(F)c(Br)c2)c1N` (centres undefined), with “in the range around 300 nM”; and `Cn1nc(C2CC3CC(O)(CSCCO)CC3C2)c(C(=O)Nc2ccc(F)c(Cl)c2)c1N` (centres undefined), with less than 100 nM. Take `Cn1nc(C2CC3CC4(CC3C2)OCCO4)c(C(=O)Nc2ccc(F)c(Cl)c2)c1N` (centres undefined): for the setting “HePAD38”, the EC50 was less than 100 nM.

Take `CCS(=O)(=O)C1CC2CC(c3nn(C)c(N)c3C(=O)Nc3ccc(F)c(Cl)c3)CC2C1` (centres undefined): the half-maximal effective concentration (EC50) (HePAD38) is less than 100 nM.

For the molecule `COc1ccc([C@H]2CC[C@H](c3nn(C)c(N)c3C(=O)Nc3ccc(F)c(Cl)c3)C2)cc1`, the EC50 was less than 100 nM. The EC50 (HePAD38) was less than 100 nM.

Take `Cn1cc(-c2ccc([C@H]3CC[C@@H](c4nn(C)c(N)c4C(=O)Nc4ccc(F)c(Cl)c4)C3)cc2)cn1`: the EC50 (HePAD38) is less than 100 nM. As for `CC[S+]([O-])C1CC2CC(c3nn(C)c(N)c3C(=O)Nc3ccc(F)c(Cl)c3)CC2C1` (centres undefined), the EC50 (HePAD38) is less than 100 nM.

Regarding `Cn1nc([C@H]2CC[C@@H](c3ccccc3)C2)c(C(=O)Nc2ccc(F)c(Cl)c2)c1N`, for the setting “HePAD38”, the EC50 was less than 100 nM. Same read-out and setting: for `Cn1nc(C2CCC(c3ccccc3)C2)c(C(=O)Nc2ccc(F)c(C#N)c2)c1N` (centres undefined) the value was less than 100 nM. Still for that read-out and setting: then `CN(C)C(=O)CC1CC2CC(c3nn(C)c(N)c3C(=O)Nc3ccc(F)c(Cl)c3)CC2C1` (centres undefined), with less than 100 nM; and `CC(C)Oc1ccc(C2CCC(c3nn(C)c(N)c3C(=O)Nc3ccc(F)c(Cl)c3)C2)cc1` (centres undefined), with less than 100 nM; and `Cn1nc(C2CC3CCCC3C2)c(C(=O)Nc2ccc(F)c(Cl)c2)c1N` (centres undefined), with less than 100 nM. Same read-out and setting: for `Cn1nc(C2CCC(c3ccc(OC(F)(F)F)cc3)C2)c(C(=O)Nc2ccc(F)c(Cl)c2)c1N` (centres undefined) the value was “in the range around 5250 nM”; for `Cn1nc(C2CC3CC(CC(N)=O)CC3C2)c(C(=O)Nc2ccc(F)c(Cl)c2)c1N` (centres undefined), less than 100 nM; for `Cn1nc([C@H]2C[C@@H](c3ccccc3)C2)c(C(=O)Nc2ccc(F)c(Cl)c2)c1N`, less than 100 nM. Consider `Cn1nc(C2CC3CC(NS(C)(=O)=O)CC3C2)c(C(=O)Nc2ccc(F)c(Cl)c2)c1N` (centres undefined), for which the EC50 (HePAD38) was less than 100 nM.

Values taken from ChEMBL document CHEMBL5729557, “5-membered heteroaryl carboxamide compounds for treatment of HBV” (2023).
